Entries after “also recorded” stand apart in the source; their conditions may differ. Peptide text beside a SMILES is read from it.
Assays:
[1] = test system: Human dermal fibroblasts (HDF); assay: Collagen protein in conditioned media (Sircol Collagen Assay) of human dermal fibroblasts; assay type: cell-based; conditions: for change in collagen production induced by individual treatment / change in collagen production induced by combined treatment with glycinamide: FIG. 7b; for change in collagen production induced by individual treatment: concentration not given; for change in collagen production induced by combined treatment with glycinamide: ascorbic acid analog combined with glycinamide; for collagen production (collagen levels secreted into the media): HDF treated at 1 mM, result in words
Description: The collagen protein levels in the conditioned media were evaluated using the Sircol™ Collagen Assay (Biocolor, Antrim, UK) according to the manufacturer's instructions. […] After discarding the media, the cells were washed with 500 μL of phosphate-buffered saline (PBS), then incubated in 1 mL of serum-free media for another 24 hours. A 1.0 mL media sample (either conditioned media or fresh media as a negative control) was transferred to a microcentrifuge tube, mixed with 100 μL of collagen isolation and concentration reagent, and incubated overnight at 4° C. The samples were centrifuged at 13,000×g for 10 minutes at 4° C., and the supernatant was carefully removed using a pipette without disturbing the pellet. Each tube was then added with 500 μL of Sircol dye reagent, inverted five times, and shaken at room temperature for 30 minutes. After centrifugation, the supernatant was discarded, and the pellet was washed with 500 μL of cold acid-salt washing reagent, followed by another centrifugation step. The pellet was then dissolved in 250 μL of alkali reagent, and a 200 μL portion was transferred to a 96-well plate. The optical density of the solution was read at 555 nm using a Spectrostar Nano microplate reader (BMG LABTECH GmbH, Ortenberg, Germany).

human dermal fibroblasts = assay: Wound healing (wound closure) assay, Oris cell migration kit; assay type: cell-based; conditions: HDF
Description: Wound closure analysis was performed using the Oris™ Universal Cell Migration Assembly kit (Platinus Technologies, WI, USA) according to the manufacturer's instructions. The Oris™ stoppers were inserted into each well of the Oris™-compatible 96-well plate, and the plate was inverted to check for complete stopper attachment. A suspension of human dermal fibroblasts in IMDM was added to each well (1×10^4 cells in 100 μL per well) and incubated for 12 hours to allow cell attachment. Then, the stoppers were removed using the stopper tool, and the medium was aspirated using a pipette. The wells were gently washed with 100 μL PBS to remove unattached cells, and the attached cells were treated with drugs in 100 μL culture medium for the specified time, respectively. Images of the wounds were obtained using a phase-contrast microscope (Eclipse TS 100, Nikon Instruments Inc., Melville, NY, USA). The wound areas in the images were quantified using the NIH Image J program. Wound closure (%) was calculated using the following equation: Wound closure (%)=[(A0−At)/A0]×100, where A0 is the area of the original wound and At is the wound area measured at the specified time.

[2] = test system: Human dermal fibroblasts (HDF); assay: Cell viability / proliferation (MTT assay) in human dermal fibroblasts; conditions: for cell proliferation effect of TGF-β1: HDF, analog combined with TGF-β1 (FIG. 7c); for cell viability: HDF treated at 1 mM, result in words
Description: Human dermal fibroblasts (HDF) extracted from adult skin were obtained from Cascade Biologics (Portland, OR, USA), and human articular chondrocytes (HAC), human follicle dermal papilla cells (HFCPC), human aortic endothelial cells (HAoEC), and human osteoblasts (HOB) were obtained from PromoCell (Heidelberg, Germany). The cells were cultured in a closed incubator at 37° C. in humidified air comprising 5% CO2. The growth medium for HDF consisted of Iscove's Modified Dulbecco's Medium (IMDM) (Gibco BRL, Grand Island, NY, USA) supplemented with 10% fetal bovine serum (Hyclone, South Logan, UT) and 1% antibiotics (100 U·mL^−1 penicillin, 0.1 mg·mL^−1 streptomycin).
The cell viability was evaluated using the MTT assay. Briefly, HDF (1×10^4 cells per well), HAC (5×10^3 cells per well), HFDPC (1×10^4 cells per well), HAoEC (5×10^3 cells per well), and HOB (2×10^3 cells per well) were cultured in growth media in a 96-well culture plate for 24 hours, followed by treatment with each drug for 48 hours. After discarding the media, the cells were incubated at 37° C. for 2 hours in fresh growth media (100 μL) containing 1 mg·mL^−1 MTT (Amresco, Solon, OH, USA). The media was removed by aspiration, and the formazan dye accumulated inside the cells was dissolved in 100 μL of dimethyl sulfoxide. The absorbance of the solution was measured at 570 nm using a Spetrostar Nano microplate reader (BMG LABTECH GmbH, Ortenberg, Germany).

Molecule	collagen production (collagen levels secreted into the media) [1]	also measured
O=C1O[C@H]([C@@H](O)CO)C(O)=C1O[C@H]1O[C@H](CO)[C@@H](O)[C@H](O)[C@H]1O [AG, ascorbyl 2-O-glucoside, reference compound]		change in collagen production induced by individual treatment ([1]; HDF): 27.2%; change in collagen production induced by combined treatment with glycinamide ([1]; HDF): 123.6%; wound closure (human dermal fibroblasts; early stage (24 hours)): slightly promoted wound closure; wound closure (human dermal fibroblasts; later stages (36 and 48 hours)): inhibited; cell proliferation effect of TGF-β1 [2]: significantly reduced
CCCCCCCCC(CCCCCC)C(=O)OC[C@H](OC(=O)C(CCCCCC)CCCCCCCC)[C@H]1OC(=O)C(OC(=O)C(CCCCCC)CCCCCCCC)=C1OC(=O)C(CCCCCC)CCCCCCCC (some centres unmarked) [ATI, ascorbyl tetraisopalmitate, reference compound]		change in collagen production induced by individual treatment ([1]; HDF): 25.5%; change in collagen production induced by combined treatment with glycinamide ([1]; HDF): 124.6%; wound closure (human dermal fibroblasts; early stage (24 hours)): slightly promoted wound closure; wound closure (human dermal fibroblasts; later stages (36 and 48 hours)): inhibited; cell proliferation effect of TGF-β1 [2]: significantly reduced
CCOC1=C(O)C(=O)O[C@@H]1[C@@H](O)CO [EAA, 3-O-ethyl ascorbic acid, reference compound]		change in collagen production induced by individual treatment ([1]; HDF): 19.5%; change in collagen production induced by combined treatment with glycinamide ([1]; HDF): 115.5%; wound closure (human dermal fibroblasts; early stage (24 hours)): slightly promoted wound closure; wound closure (human dermal fibroblasts; later stages (36 and 48 hours)): inhibited; cell proliferation effect of TGF-β1 [2]: significantly reduced
O=C1O[C@H]([C@@H](O)CO)C([O-])=C1OP(=O)([O-])[O-].O=C1O[C@H]([C@@H](O)CO)C([O-])=C1OP(=O)([O-])[O-].[Mg+2].[Mg+2].[Mg+2] [MAP, Magnesium ascorbyl phosphate, reference compound]		change in collagen production induced by individual treatment ([1]; HDF): 25.3%; change in collagen production induced by combined treatment with glycinamide ([1]; HDF): 118.4%; further enhancement of wound closure by combined treatment with glycinamide (human dermal fibroblasts; analog combined with glycinamide): further enhanced; wound closure (human dermal fibroblasts; treated alone, up to 48 hours (FIG. 8b)): promoted wound closure to a similar extent as ascorbic acid
CC(=O)NCC(=O)O [N-acetyl glycine, reference compound]	did not affect collagen production	
C[C@H](N)C(N)=O.Cl [alaninamide, L-Alaninamide HCl]	enhanced the collagen levels	
Cl.Cl.N=C(N)NCCC[C@H](N)C(N)=O [argininamide, L-Argininamide diHCl]	enhanced the collagen levels	
Cl.NC(=O)C[C@H](N)C(N)=O [asparaginamide, L-Asparaginamide HCl]	no significant effect	
Cl.NC(=O)[C@@H](N)CC(=O)O [aspartic acid α-amide, L-Aspartic acid α-amide HCl]	no significant effect	cell viability [2]: reducing effect
Cl.NC(=O)[C@@H](N)CS [cysteinamide, L-Cysteinamide HCl]	enhanced the collagen levels	
NC(=O)[C@@H](N)CCC(=O)O [glutamic acid α-amide, L-Glutamic acid α-amide]	enhanced the collagen levels	
Cl.NC(=O)CC[C@H](N)C(N)=O [glutaminamide, L-Glutaminamide HCl]	enhanced the collagen levels	
NC(=O)CC[C@H](N)C(=O)O [glutamine, L-Glutamine, reference compound]	increased collagen	
CCOC(=O)CN.Cl [glycine ethyl ester, glycine ethyl ester HCl, reference compound]	did not affect collagen production	
COC(=O)CN.Cl [glycine methyl ester, glycine methyl ester HCl, reference compound]	somewhat reducing effect	
NCC(=O)O [glycine, Glycine, reference compound]	most effectively increased collagen; also recorded: enhanced collagen production	collagen production ([1]; HDF, 3 and 5 mM): significantly reduced
NCC(=O)NCC(=O)O [glycyl glycine, reference compound] (H-Gly-Gly-OH)	did not affect collagen production	

Molecule	collagen production (collagen levels secreted into the media) [1]	also measured
NCC(=O)NCC(=O)O [glycylglycine] (H-Gly-Gly-OH)	promoted collagen production	collagen production ([1]; HDF, 0.25 mM): increased collagen production; collagen production ([1]; HDF, 1-2 mM): greatest enhancement of collagen production; collagen production ([1]; HDF, 3 and 5 mM): slightly reduced
Cl.NC(=O)[C@@H](N)Cc1c[nH]cn1 [histidinamide, L-Histidinamide HCl]	no significant effect	
CC[C@H](C)[C@H](N)C(N)=O.Cl [isoleucinamide, L-Isoleucinamide HCl]	enhanced the collagen levels	
CC[C@H](C)[C@H](N)C(=O)O [isoleucine, L-Isoleucine, reference compound]	increased collagen	
CC(C)C[C@H](N)C(N)=O.Cl [leucinamide, L-Leucinamide HCl]	enhanced the collagen levels	
CC(C)C[C@H](N)C(=O)O [leucine, L-Leucine, reference compound]	increased collagen	
Cl.Cl.NCCCC[C@H](N)C(N)=O [lysinamide, L-Lysinamide diHCl]	no significant effect	cell viability [2]: reducing effect
CSCC[C@H](N)C(N)=O.Cl [methioninamide, L-Methioninamide HCl]	enhanced the collagen levels	
Cl.NC(=O)[C@@H](N)Cc1ccccc1 [phenylalaninamide, L-Phenylalaninamide HCl]	enhanced the collagen levels	
Cl.NC(=O)[C@@H]1CCCN1 [prolinamide, L-Prolinamide HCl]	enhanced the collagen levels	
O=C(O)[C@@H]1CCCN1 [proline, L-Proline, reference compound]	increased collagen	
Cl.NC(=O)[C@@H](N)CO [serinamide, L-Serinamide HCl]	no significant effect	
C[C@@H](O)[C@H](N)C(N)=O.Cl [threoninamide, L-Threoninamide HCl]	enhanced the collagen levels	
Cl.NC(=O)[C@@H](N)Cc1c[nH]c2ccccc12 [tryptophanamid, L-Tryptophanamide HCl]	no significant effect	
Cl.NC(=O)[C@@H](N)Cc1ccc(O)cc1 [tyrosinamide, L-Tyrosinamide HCl]	enhanced the collagen levels	
CC(C)[C@H](N)C(N)=O.Cl [valinamide, L-Valinamide HCl]	enhanced the collagen levels	
madecassoside [reference compound]		collagen production ([1]; HDF, 10 μM): no significant effect; concentrations at which collagen production increased ([1]; HDF, non-cytotoxic concentrations (FIG. 10b)): 100 µM

Source: US20260027071A1, “COMPOSITION FOR PROMOTING COLLAGEN PRODUCTION COMPRISING AMIDATED AMINO ACID” (KYUNGPOOK NATIONAL UNIVERSITY INDUSTRY-ACADEMIC COOPERATION …, priority 2022, published 2026)
